Measured values reported in article PMC6066518, “Homology Modeling Informs Ligand Discovery for the Glutamine Transporter ASCT2” (Frontiers in Chemistry, 2018).

Biological target: T1, ASCT2 (Rattus norvegicus, UniProt D3ZJ25)
T1 construct: gene Slc1a5
T1 sequence (D3ZJ25 1-555): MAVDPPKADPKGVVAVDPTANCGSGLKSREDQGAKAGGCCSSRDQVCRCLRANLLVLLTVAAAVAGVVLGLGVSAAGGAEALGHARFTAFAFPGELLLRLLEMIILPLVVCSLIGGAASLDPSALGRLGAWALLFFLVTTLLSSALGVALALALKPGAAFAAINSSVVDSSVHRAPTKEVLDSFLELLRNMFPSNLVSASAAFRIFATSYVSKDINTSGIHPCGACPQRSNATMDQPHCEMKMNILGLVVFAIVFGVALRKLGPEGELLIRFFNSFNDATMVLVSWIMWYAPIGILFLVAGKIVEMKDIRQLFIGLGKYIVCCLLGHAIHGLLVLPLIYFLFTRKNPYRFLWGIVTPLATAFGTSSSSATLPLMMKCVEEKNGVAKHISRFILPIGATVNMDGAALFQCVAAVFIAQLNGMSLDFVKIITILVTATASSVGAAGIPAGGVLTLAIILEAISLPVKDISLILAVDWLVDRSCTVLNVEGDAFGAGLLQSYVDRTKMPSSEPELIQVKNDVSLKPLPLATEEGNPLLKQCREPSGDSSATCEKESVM
Experiment: whole-cell current recording, inhibition of anion leak current in HEK293 cells expressing rat ASCT2
Format: cell-based

Cc1ccccc1C1(CNC(=O)NC(C(N)=O)c2ccccc2)CC1 (stereo not shown) [compound 10] gave an IC50 of 67 ± 17 µM.
